Results as given in patent US20150031655A1, “COMBINATION OF LIVER X RECEPTOR MODULATOR AND ESTROGEN RECEPTOR MODULATOR FOR THE TREATMENT OF AGE-RELATED DISEASES” (UNIVERSITY OF NORTH DAKOTA, priority 2011, published 2015).

Assays:
Assay type in all cases: cell-based
TNF-α = TNF-α levels in ARPE-19 cells; conditions: ARPE-19, 24 h, 10 μM, alone vs control
ERβ = target: T1, ERβ (Homo sapiens, UniProt Q92731); test: Western blot of ERβ levels in the nucleus (nuclear translocation), SH-SY5Y cells; conditions: 24 h, treatment alone vs control
T1 construct: endogenous in cells; host or cells: SH-SY5Y human neuroblastoma cells
T1 sequence (Q92731 whole entry): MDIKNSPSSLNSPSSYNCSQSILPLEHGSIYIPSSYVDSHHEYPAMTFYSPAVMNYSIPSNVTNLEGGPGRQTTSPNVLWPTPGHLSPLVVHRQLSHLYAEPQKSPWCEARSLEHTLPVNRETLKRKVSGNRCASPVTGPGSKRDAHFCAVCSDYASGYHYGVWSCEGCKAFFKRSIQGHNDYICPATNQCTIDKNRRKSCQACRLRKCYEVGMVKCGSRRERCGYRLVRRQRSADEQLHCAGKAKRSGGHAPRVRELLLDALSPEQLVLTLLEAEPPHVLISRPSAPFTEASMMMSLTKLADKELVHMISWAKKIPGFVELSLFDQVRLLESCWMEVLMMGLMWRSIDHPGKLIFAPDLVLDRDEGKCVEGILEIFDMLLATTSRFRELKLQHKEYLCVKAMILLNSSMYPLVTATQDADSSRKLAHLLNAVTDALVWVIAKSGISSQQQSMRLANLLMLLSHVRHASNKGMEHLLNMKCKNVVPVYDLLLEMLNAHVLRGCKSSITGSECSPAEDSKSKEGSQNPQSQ
Protocol: Human neuroblastoma SH-SY5Y cells were grown in DMEM/F12 medium containing 10% fetal bovine serum (FBS) and 1% antibiotic/antimycotic mix. Cells were maintained at 37° C. in a saturated humidity atmosphere containing 95% air and 5% CO2.
Treated SH-SY5Y cells were washed with PBS and trypsinized to collect the cells and centrifuged at 5000 g. The pellet was washed again with PBS and homogenized in NE-PER tissue protein extraction reagent (Thermo Scientific, Rockford, Ill.) supplemented with protease and phosphatase inhibitors. Protein concentrations from the cytosolic and nuclear homogenates were determined with BCA protein assay.
Proteins (10 μg) were separated on SDS-PAGE gels, transferred to a polyvinylidene difluoride membrane (BioRad, Hercules, Calif.), and incubated with the following monoclonal antibodies: anti-TH mouse antibody (1:1000; Sigma Aldrich, Saint Louis, Mo.), anti-α-synuclein mouse antibody (1:500; Chemicon, Temecula, Calif.), anti-ERα rabbit antibody (1:500; Abcam, Cambridge, Mass.), anti-ERβ rabbit antibody (1:200; Upstate, Lake Placid, N.Y.), anti-LXRα rabbit antibody (1:500; Abcam, Cambridge, Mass.), anti-LXRβ mouse antibody (1:500; Abcam, Cambridge, Mass.).
β-actin and Lamin A were used as a gel loading control for cytosolic homogenates and nuclear homogenates respectively. The blots were developed with enhanced chemiluminescence (Immmun-star HRP chemiluminescent kit, Bio-Rad, Hercules, Calif.). Bands were visualized on a polyvinylidene difluoride membrane and analyzed by LabWorks 4.5 software on a UVP Bioimaging System (Upland, Calif.). Quantification of results was performed by densitometry and the results analyzed as total integrated densitometric values (arbitrary units).

ARPE-19 cells = tested on: ARPE-19 cells
Protocol: ARPE-19 cells were treated with 0, 10 or 25 μM 27-OHC for 24 hours.

With `C[C@@H](CO)CCC[C@@H](C)[C@H]1CC[C@H]2[C@@H]3CC=C4C[C@@H](O)CC[C@]4(C)[C@H]3CC[C@]12C` [27-OHC, 27-hydroxycholesterol] the TNF-α levels (TNF-α) was “increases”, the “nuclear translocation / nuclear levels of ERβ” value (ERβ) was “decrease” and the “toxicity to RPE cells” value (ARPE-19 cells) was “toxic”. For the same molecule, the Aβ peptide production (ARPE-19 cells; ARPE-19, 0, 10 or 25 μM, 24 hours) was “dose-dependently increased”, the “Ca^2+ homeostasis” value (ARPE-19 cells; ARPE-19, 10 or 25 μM, 24 hours) was “dyshomeostasis” and the ROS generation (ARPE-19 cells; ARPE-19, 10 or 25 μM, 24 hours) was “ROS generation”. For the same molecule, the glutathione (ARPE-19 cells; ARPE-19, 10 or 25 μM, 24 hours) was “glutathione depletion”, the “levels of ER stress specific markers caspase 12 and gadd153” value (ARPE-19 cells; ARPE-19, 10 or 25 μM, 24 hours) was “increased” and the “levels of NFκB and heme-oxygenase 1 (HO-1)” value (ARPE-19 cells; ARPE-19, 10 or 25 μM, 24 hours) was “increased”. The mitochondrial membrane potential (ARPE-19 cells; ARPE-19, 10 or 25 μM, 24 hours) was “reduced”.
